# Where a name gives a salt, the structure may show the parent alone.
# Columns and labels:
# [1] = tested on: Mycobacterium tuberculosis; test: Antimycobacterial activity against Mycobacterium tuberculosis H37Rv assessed as bacterial growth at 5 ug/mL after 45 days by Lowenstein-Jensen method; format: functional
# [2] = tested on: Mycobacterium tuberculosis; test: Antimycobacterial activity against Mycobacterium tuberculosis H37Rv assessed as growth inhibition after 45 days by Lowenstein-Jensen method; format: functional
# [3] = tested on: Mycobacterium tuberculosis; test: Antimycobacterial activity against Mycobacterium tuberculosis assessed as growth inhibition; format: functional
# Mycobacterium avium = test: Antimycobacterial activity against Mycobacterium avium 724 assessed as growth inhibition after 12 days microdrop agar proportion test; format: functional; conditions: Mycobacterium avium, 724, 288 h
# Mycolicibacterium aurum = test: Antimycobacterial activity against Mycobacterium aurum A+ assessed as growth inhibition after 4 days microdrop agar proportion test; format: functional; conditions: 96 h
# HEK-293T = test: Cytotoxicity against HEK293T cells assessed as cell viability after 72 hrs by MTT assay; format: cell-based; conditions: Homo sapiens
# [4] = Selectivity index, ratio of IC50 for HEK293T cells to MIC for Mycobacterium tuberculosis H37Rv; format: functional, HEK-293T
SMILES,Activity [1] [%],MIC [2] [µM],other results
CC[C@H](CO)NC(=O)Nc1ccc(NC(=O)N[C@H](CC)CO)cc1,100,> 14.8,
CC[C@H](CO)NC(=O)NCC(c1ccccc1)c1ccccc1,100,4.8,
CC[C@H](CO)NC(=O)NCCCCCCNC(=O)N[C@H](CC)CO,100,> 14.4,
CCNC(=S)N[C@H](CC)CO,100,> 28.4,
CCCCNC(=O)N[C@H](CC)CO,100,> 26.6,
CC(C)=CCC/C(C)=C/CNCCNC1C2CC3CC(C2)CC1C3 (stereo unspecified) [SQ109],,,MIC [3]: 0.7 µM
CC[C@H](CO)NC(=O)NCc1ccccc1,100,> 22.5,
CC(C)CCOc1ccc(NC(=S)Nc2ccc(OCCC(C)C)cc2)cc1 [TIOCARLIDE],,,MIC (Mycobacterium avium): 4.99 µM; MIC (Mycolicibacterium aurum): 4.99 µM
CC[C@H](CO)NC(=O)N[C@H](CC)CO,100,> 24.5,
CC[C@H](CO)NC(=O)NCCc1ccccc1,100,> 21.2,
CC[C@H](CO)NC(=O)Nc1ccccc1,100,> 24,
CCCNC(=O)N[C@H](CC)CO,100,> 28.7,
CC[C@H](CO)NC(=O)N(C)C,100,> 31.2,
CC[C@H](CO)NC(=O)NC12CC3CC(CC(C3)C1)C2,100,> 18.8,
CC[C@H](CO)NC(=O)Nc1ccc(Cc2ccc(NC(=O)N[C@H](CC)CO)cc2)cc1,100,> 11.7,
CC[C@H](CO)NC(=O)NC1CCCCC1,100,> 23.3,
CC[C@H](CO)NC(=S)NC(=O)c1ccccc1O,,7.46,IC50 (HEK-293T): 104 µM; Selectivity Index [4]: 14
CC[C@H](CO)NC(=S)NC,100,> 30.8,
CC[C@H](CO)NC(=S)NC(=O)c1ccc(N(C)C)cc1,,3.39,IC50 (HEK-293T): 12.8 µM; Selectivity Index [4]: 3.8
CC[C@H](CO)NC(=O)NC(C)(C)C,100,> 26.6,
CC[C@H](CO)NC(=S)NC(=O)/C=C/c1ccccc1,,0.36,IC50 (HEK-293T): 42.9 µM; Selectivity Index [4]: 119.2
CC[C@H](CO)NC(=S)NC(=O)CCc1ccccc1,,7.13,IC50 (HEK-293T): 66.2 µM; Selectivity Index [4]: 9.3
CC[C@@H](CO)NCCN[C@@H](CC)CO [ETHAMBUTOL HYDROCHLORIDE],,7.22,MIC [3]: 7.22 µM
CC[C@H](CO)NC(=O)N[C@H](C)c1ccccc1,100,> 21.2,
